From patent US7745139B1, “Peptides of the AT1 receptor and their uses” (Max-Delbrück-Centrum für Molekulare Medizin, priority 1998, dated 2010)
Entries after “also recorded” stand apart in the source; their conditions may differ.

Assays:
AT1 receptor = biological target: T1, AT1 receptor (Rattus norvegicus, UniProt P25095); assay: Bioassay: beat frequency of spontaneously pulsing cultivated neo-natal rat heart cells (cardiomyocytes); assay type: cell-based; conditions: for Influence on the positively chronotropic effect of angiotensin II: cells stimulated with angiotensin II; for Influence of receptor blockers on the positively chronotropic effect of the auto-antibodies: cells stimulated with anti-AT1 receptor auto-antibody
T1 construct: endogenous in cells; host or cells: primary culture of spontaneously pulsing neonatal rat cardiomyocytes
T1 sequence (P25095 1-359): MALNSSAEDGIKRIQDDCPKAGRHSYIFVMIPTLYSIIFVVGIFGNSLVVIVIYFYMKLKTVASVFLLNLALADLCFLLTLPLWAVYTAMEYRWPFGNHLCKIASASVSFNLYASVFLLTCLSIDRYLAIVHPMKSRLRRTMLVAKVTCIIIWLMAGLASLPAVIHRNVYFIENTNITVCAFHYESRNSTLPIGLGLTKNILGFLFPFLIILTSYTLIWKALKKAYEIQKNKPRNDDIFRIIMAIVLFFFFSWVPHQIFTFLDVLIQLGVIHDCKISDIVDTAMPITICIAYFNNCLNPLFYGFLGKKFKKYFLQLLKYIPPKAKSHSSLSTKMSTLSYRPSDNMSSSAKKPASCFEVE
Source text: The bio-assay entails • spontaneously pulsing neo-natal cardiomyocytes in primary culture or • cardiomyocytes differentiated from undifferentiated embryonal stem cells • in one culture medium
(§1) Cultivated neo-natal rat heart cells were used as a bioassay.
To identify and characterise the AT1 receptor antibodies, a sensitive bioassay was used. […] In order to identify the epitopes of the auto-antibodies on the second extra-cellular loops of the angiotensin II AT1 receptor, an attempt was made to neutralise the anti-AT1 receptor auto-antibodies with short overlapping peptides. […] I.

[1] = test system: anti-AT1 receptor auto-antibodies; assay: Neutralisation of patients' antibodies by pre-treatment with AT1 receptor peptides, read out in the cardiomyocyte bioassay; assay type: cell-based, human; conditions: for Patients' antibodies, pre-treated with peptide (beat frequency bioassay): antibody 1:40 + peptide; for Annulment of the effect of the antibody by epitope peptides: antibodies of hypertension sufferers; for Neutralisation/inhibition of the agonistic effect of the auto-antibodies on the cells: antibodies of preeclampsia patients
Source text: as §1
To identify and characterise the AT1 receptor antibodies, a sensitive bioassay was used. […] Further, this agonistic effect was neutralised by a peptide corresponding to the second extra-cellular loop of the AT1 receptor. In order to identify the epitopes of the auto-antibodies on the second extra-cellular loops of the angiotensin II AT1 receptor, an attempt was made to neutralise the anti-AT1 receptor auto-antibodies with short overlapping peptides. […] These were the epitopes ENTNIT and AFHYESQ. In preeclampsia patients, the agonistic effect of the antibodies achieved via the AT1 receptor was only neutralised by the peptide AFHYESQ. This epitope has a special importance in this disease, as it was identified in all the patients examined. […] I.

Patients' antibodies, pre-treated with peptide (beat frequency bioassay) ([1]; Patient No. 1)	Patients' antibodies, pre-treated with peptide (beat frequency bioassay) ([1]; Patient No. 2)	Molecule	Neutralisation/inhibition of the agonistic effect of the auto-antibodies on the cells [1]	further results
		CCCCc1nc(Cl)c(CO)n1Cc1ccc(-c2ccccc2-c2nn[nH]n2)cc1 [Losartan]		Influence on the positively chronotropic effect of angiotensin II (AT1 receptor): blocked; Influence on the positively chronotropic effect of angiotensin II (AT1 receptor; listed as Losastan): inhibited; Influence of receptor blockers on the positively chronotropic effect of the auto-antibodies (AT1 receptor): stopped; Influence of receptor blockers on the positively chronotropic effect of the auto-antibodies (AT1 receptor; listed as Losastan): inhibited
		Cc1cc(Cn2cnc3c2C[C@@H](C(=O)O)N(C(=O)C(c2ccccc2)c2ccccc2)C3)ccc1N(C)C [PD 123319]		Influence of receptor blockers on the positively chronotropic effect of the auto-antibodies (AT1 receptor): no influence
1.2 ± 0.84	1.6 ± 1.24	AFHYESQ	inhibits the effect; also recorded: neutralised	Annulment of the effect of the antibody by epitope peptides [1]: annul the effect of the antibody
		ENTNIT		Annulment of the effect of the antibody by epitope peptides [1]: annul the effect of the antibody
2.4 ± 0.72	2.8 ± 1.20	GYYFDTN [function-analog peptide]	neutralise the antibodies	
0.8 ± 1.16	0.8 ± 0.80	SHFYQTR [function-analog peptide]	neutralise the antibodies	
		angiotensin II [angiotensin-II]		Chronotropic effect on cardiomyocytes (beat frequency / pulsation rate) (AT1 receptor; agonist alone): increase of the beat frequency
		loop II peptides: peptides portraying the part of the AT1 receptor corresponding to loop II (IHRNVFFIENTNITVCAFHYESQNSTL)	inhibit the antibody effect	Neutralisation/inhibition of the agonistic effect of the auto-antibodies on the cells ([1]; listed as peptide corresponding to the second extra-cellular loop of the AT1 receptor): neutralised
